How the values were obtained:
[1] = test system: IFV (H1N1, A/Puerto Rico/8/34); assay: rRT-PCR quantification of IFV captured on membranes; assay type: binding, influenza virus A/Puerto Rico/8/34 (H1N1); settings: 1600 pfu incubated 1 h at 25°C; plastic plates; estimated from rRT-PCR standard curve (M gene, R^2 0.954)
Description: The pep-PE/DOPC (50:50) lipid monolayer was attached horizontally to plastic plates as described above. […] After washing with PBS, plates were incubated with AVL viral lysis buffer (QIAamp Viral RNA Mini Kit, QIAGEN) for 10 min. Viral RNA was extracted according to the manufacturer's instructions.
One-step RT-PCR was performed using QuantiTect SYBR Green PCR Kit (QIAGEN) with forward and reverse primers for the sequences of the matrix protein (M) gene for 244 bp (forward M30F2/08: 5′-[…] -3′; reverse M264R3/08: 5′-[…] -3′; Eisfeld et al., [2014]). The reaction was performed using a PikoReal Real-Time PCR system (TCR0096, Thermo Scientific). PCR was set up in a 10-μL reaction volume containing 5 μL of 2 × QuantiTect SYBR Green RT-PCR master mix, 0.1 μL of QuantiTect RT Mix, 0.5 μL of RNA template, 1 μL of forward and reverse primers (10 μM each), and 3.4 μL of RNase free water. […] Fluorescence was measured at the end of each cycle. […] A melting curve analysis consisted of 60°C for 30 s, and followed by a temperature increase to 95°C for 10 s with the continuous reading of fluorescence. The amplified products were analyzed by agarose gel electrophoresis (2.5% agarose) and detected by staining with ethidium bromide (Supplementary Figure 3A). […]

HA = settings: cited from earlier work
IFV = settings: ref Matsubara et al., [2010]; cited from earlier work
Source text: The first step in the infection of cells by IFV is the binding of HA to sialic acid-containing glycoconjugates (Skehel and Wiley, [2000]). Human HA strains preferentially bind to the terminal sialylgalactose structure (Neu5Acα2−6Gal), whereas avian and equine strains bind to the corresponding Neu5Acα2−3Gal (Suzuki, [2005]).

In the case of `CCCCCCCC/C=C\CCCCCCCC(=O)OC[C@H](COP(=O)([O-])OCC[N+](C)(C)C)OC(=O)CCCCCCC/C=C\CCCCCCCC` [DOPC, Dioleoylphosphatidylcholine], the “amount of virus captured on the membrane” value [1] is reported as 100 pfu.

In the case of Ala-Arg-Leu-Pro-Arg, the “binding to receptor-binding site of HA” value (HA; ref Matsubara et al., [2010]) is given as “binds to the receptor-binding site of HA by mimicking sialic acid” and the “inhibition of IFV infection in cells” value (IFV) is given as “exerts the inhibitory effects on IFV infection in cells”.

In the case of Neu5Acα2–3Galβ1–4Glcβ1–1′Cer [GM3], the “HA binding to GM3” value (HA; ref Suzuki et al., [1986], Sato et al., [1996]) is listed as “HA binds to GM3 through the sialyllactose structure”.

From publication PMC4823272 (Frontiers in Microbiology, 2016)
